Test: xn = mol fraction of the nth substance listed
Settings: 101 kPa, Liquid; for mass density: Vibrating tube method

NCCCO [3-amino-1-propanol] + CC(C)CO
Settings	mass density, 293.15 K [kg/m3]	mass density, 303.15 K [kg/m3]	mass density, 313.15 K [kg/m3]	mass density, 323.15 K [kg/m3]	mass density, 333.15 K [kg/m3]	viscosity, 293.15 K [mPa·s]	viscosity, 303.15 K [mPa·s]	viscosity, 313.15 K [mPa·s]	viscosity, 323.15 K [mPa·s]	viscosity, 333.15 K [mPa·s]
x1 = 0.1037	819.8	811.99	804.06	795.93	787.58	5.051	3.521	2.443	1.637	1.025
x1 = 0.2007	837.1	829.27	821.32	813.22	804.93	6.346	4.093	3.059	2.113	1.408
x1 = 0.3006	854.9	847.02	839.04	830.95	822.7	8.282	5.473	3.688	2.534	1.699
x1 = 0.4002	873.2	865.25	857.25	849.16	840.94	10.89	6.995	4.658	3.177	2.155
x1 = 0.501	891.9	883.89	875.86	867.78	859.58	13.95	8.794	5.767	3.903	2.693
x1 = 0.6007	910.4	902.41	894.47	886.34	878.16	17.71	10.85	7.048	4.73	3.251
x1 = 0.7008	929.5	921.49	913.45	905.35	897.17	21.85	13.33	8.496	5.666	3.88
x1 = 0.8005	948.6	940.49	932.36	924.27	916.24	27.18	16.12	10.09	6.695	4.573
x1 = 0.9005	–	960.24	952.19	944.09	935.93	33.2	19.47	12.19	8.029	5.424
x1 = 1	987.55	979.53	971.47	963.37	955.22	40.45	23.98	15.31	10.22	6.961

NCCCO [3-amino-1-propanol] + CC(C)O
Settings	mass density, 293.15 K [kg/m3]	mass density, 303.15 K [kg/m3]	mass density, 313.15 K [kg/m3]	mass density, 323.15 K [kg/m3]	mass density, 333.15 K [kg/m3]	viscosity, 293.15 K [mPa·s]	viscosity, 303.15 K [mPa·s]	viscosity, 313.15 K [mPa·s]	viscosity, 323.15 K [mPa·s]	viscosity, 333.15 K [mPa·s]
x1 = 0.1006	807.84	799.47	790.86	781.97	772.74	3.076	2.069	1.334	0.761	–
x1 = 0.2004	830.07	821.75	813.25	804.55	795.57	4.223	2.918	1.964	1.278	0.734
x1 = 0.3	851.78	843.5	835.07	826.48	817.69	5.489	3.955	2.745	1.879	1.203
x1 = 0.4007	873.12	864.86	856.49	848	839.34	7.957	5.363	3.704	2.559	1.75
x1 = 0.5003	894.23	885.99	877.67	869.25	860.69	11.01	7.213	4.931	3.402	2.367
x1 = 0.6	914.21	906	897.72	889.36	880.9	14.58	9.397	6.266	4.356	3.063
x1 = 0.7002	933.43	925.29	916.99	908.67	900.35	19.25	12.09	8.058	5.497	3.88
x1 = 0.8003	952.3	944.26	935.98	927.76	919.55	25.27	15.62	10.17	6.895	4.842
x1 = 0.9001	970.56	962.49	954.37	946.21	937.99	32.08	19.5	12.46	8.337	5.894
x1 = 1	987.65	979.65	971.61	963.52	955.38	40.46	23.98	15.31	10.22	6.962

— the NIST ThermoML archive (doi:10.1016/j.jct.2012.02.036)
